Data taken from patent publication US20030055106A1, “Therapeutic uses of peroxometallic compounds” (priority 1999, published 2003).

What was measured:
[1] = test system: HUVECs; assay: HUVEC differentiation and organization into tubular-like structures in fibrin matrix; assay type: cell-based, Human; details: 21 days in culture
Procedure: Alternatively, HUVECs cultured in a fibrin matrix can form 3-dimensional tubular-like structures in the presence of serum (103). This assay was performed in the presence of either bpV(phen), bpv(pic) or vanadate to assess the influence of each one of these compounds on HUVEC differentiation and organization (Table 1). HUVECs were seeded on the bottom of gelatin-coated wells at high density to provide a confluent monolayer at 48 hours.
Then, 50 000 HUVECs/ml were embedded in fibrinogen solution prior to polymerization. The fibrin matrix was covered with culture medium containing the molecule to be tested, while culture medium without any of these molecules served as controls. Cell behavior was observed periodically by phase contrast microscopy.

[2] = test system: Rat aorta rings; assay: Rat aortic ring assay (cell/microvessel migration in fibrin gel); assay type: cell-based
Description: FIG. 3: Micrographs of the cell migration from aortic rings embedded in fibrin (×12).
FIG. 4: Quantification of the cell migration from aortic rings in the presence of orthovanadate (plain bars); bpV(phen) (light gray bars); and bpV(pic) (dark gray bars). The control appears as an empty bar. Means and standard errors of the means are presented.
Rat aorta rings were embedded in fibrin matrix as previously described (107). Thoracic aortas excised from adult rats were rinsed in Hank's balanced salt solution (HBSS), and cleansed of periadventitial. One-mm long aortic rings were sectioned and rinsed in culture medium. Each of the aortic rings were then embedded in fibrin gel matrix. Migration of microvessels in fibrin gel was quantified by measuring the distance from the external surface of rat aortic rings towards the migrating vessels. Measurements were performed at day 15 by digitizing morphometry with a NIH image analysis system (FIGS. 3 and 4).

[3] = test system: murine B10R macrophages; assay: Chemokine mRNA expression (RNase protection); assay type: cell-based
Procedure: FIG. 9: Effect of bpV(phen) on chemokine mRNA expression in murine B10R macrophages. (A) Cells were incubated for 2 h with or without various concentrations of bpV(phen) (1-50 μM). Total RNA was isolated and analyzed by RNase protection. (B) Kinetic expression of chemokine genes in murine BIOR macrophages. Cells were incubated for increasing period of time (1-4 h) with or without bpV(phen) at 10 μM. Following extraction of total RNA, RNase protection assay was performed. Free RNA probe is shown in the far left lane. The fold increase was calculated from the densitometry of the autoradiogam.
Various concentrations of bpv(phen) were added to B10R macrophages for4 h. mRNA expression was measured by RNase protection assays. RANTES, MIP-1a/β MIP-2, IP-10 and MCP-1 chemokine mRNA levels increased in response to bpv(phen) (FIG. 9A). MCP-1, MIP-2, MIP-1β and RANTES were induced by the addition of bpv(phen) in a dose-dependent manner whereas IP-10 and MIP-1a were expressed at markedly lower concentrations (10 μM).
To determine the kinetics of chemokine expression following pV compound treatment, B10R macrophages were incubated with 10 ?M bpV(phen) for increasing time intervals. Total RNA was extracted from macrophages at various time-points and subjected to RNase protection assay. […] Thus, conditions for the induction of chemokine expression in response to bpV(phen) seems to vary with the different chemokines.

[4] = test system: ZR-75 breast cancer cells; assay: In vitro collagen-fibrin tumor progression model, ZR-75; assay type: cell-based, human
Description: FIG. 12: Illustration of the antitumor activity of bpV(phen) in vitro using ZR-75 breast cancer cells. Experiments were done as described for the FIG. 11 except that DMEM medium having a high glucose concentration and without phenol red was used. 10% FBS was used instead of 5% FBS. The media was supplemented with 10^−9 M estradiol (final concentration).
The cells embedded in the collagen gel, grew as a “primary tumor”. Some cells migrated from the primary tumor towards the fibrin gel, forming front edges. […] Their extension and numbers are representative of the invasive potential of the cancer cells.

[5] = test system: ZR-75-1 human breast cancer; assay: ZR-75-1 human breast cancer xenograft; assay type: in vivo, Female homozygous HSD nu/nu athymic mice; details: 2.5 mg/Kg daily i.p., 42 days; E1 replacement
Procedure: A) ZR-75-1 human breast cancer: ZR-75-1 human breast cancer cells obtained from the American Tissue Culture Collection (Rockville, Md.) were cultured in phenol red-free RPMI 1640. […] Female homozygous HSD nu/nu athymic mice (50 days old) were obtained from Harlan Sprague Dawley Inc. (Indianapolis, Ind.). Five mice were housed per vinyl cage, which was equipped with air filter lids and kept in laminar air flow hoods under pathogen-limiting conditions. The photoperiod was composed of a period of 14 h of light and a period of 10 h of darkness. Cages, bedding, and food (Agway Pro-Lab R-M-H diet #4018) were autoclaved prior to use. […] Bilateral ovariectomy (OVX) was performed on all animals one week prior to cell inoculation, under 2.5% isoflurane anesthesia mixed with oxygen. Simultaneously, an oestrogen (E2) implant was inserted subcutaneously to stimulate […] tumor growth and appearance. E2 implants were prepared in 1-cm long silastic tubing (inside diameter, 0.062 inch; outside diameter, 0.095 inch) containing 0.5 cm of estradiol/cholesterol diluted at a ratio of 1:10 (w:w). […] Statistical significance of treatment effect was assessed by repeated measures ANOVA after applying a power transformation to equalize residual variances and linearize the tumor growth curves.

O.O.O.OO.OO.[K+].[OH-].[V].c1cnc2c(c1)ccc1cccnc12 [bpV(phen), potassium bisperoxo(1,10-phenanthroline)oxovanadate]
structures observed by phase contrast microscopy ([1]; 1 μM): cord-like structures (or cords), tube-like structures (or tubes) and stellate structures (or Stell.struct.) were observed | structures observed by phase contrast microscopy ([1]; 2 and 3.5 μM): fragmented cord-like structures were apparent | cell migration from aortic rings ([2]; 1 μM, compared to control): impaired | cell migration from aortic rings ([2]; 3.5 μM): strong inhibition | most effective dose for the induction of chemokine gene expression [3]: 10 µM | expression of RANTES mRNA ([3]; 10 μM bpV(phen)): increased in a time-dependent manner over 24 h | time of maximum levels of MIP-1a, MIP-2, IP-10, and MCP-1 chemokines mRNA ([3]; 10 μM bpV(phen)): 4 h | time of optimal expression of MIP-1β mRNA ([3]; 10 μM bpV(phen)): 8 h | RANTES, MIP-1a/β MIP-2, IP-10 and MCP-1 chemokine mRNA levels ([3]; various concentrations (1-50 μM)): increased | progression of ZR-75-1 cells (primary and secondary tumors) ([4]; 2 μM): restricted the growth of the primary tumor | progression of ZR-75-1 cells (primary and secondary tumors) ([4]; 5 and 10 μM): there were no secondary tumors and the primary tumor had a lower cell density | tumor size [5]: do not resulted in increase of tumor size
